Measurements: patent US9884832B2 (priority 2011, dated 2018)
Where two headings read alike, the source gives them in different places.

Target: AM2 S31N (serine→asparagine mutation at residue 31 in the M2 protein) (Influenza A virus, UniProt P0DOF5, S31N)
Format: cell-based, influenza virus A/Udorn/72

Row | Compound | S31N OOcyte Inhibition at 100 uM (%) (pH 5.5) | S31N OOcyte Inhibition at 100 uM (%)
1 | c1cc2nc(CNC34CC5CC(CC(C5)C3)C4)sc2s1 [Example 77b, Adamantan-1-yl-thieno[3,2-d]thiazol-2-ylmethyl-amine] | A (key: (A)=31-95%; (B)=0-30%) | –
2 | CC(C)c1nc(CNC23CC4CC(CC(C4)C2)C3)no1 [Example 102a, N-((5-isopropyl-1,2,4-oxadiazol-3-yl)methyl)adamantan-1-amine] | – | A (key: (A)=31-95%; (B)=0-30%)
3 | FC(F)(F)Oc1ccc(-c2cc(CNC34CC5CC(CC(C5)C3)C4)no2)cc1 [Example 36b, N-((5-(4-(trifluoromethoxy)phenyl)isoxazol-3-yl)methyl)adamantan-1-amine] | B (key: (A)=31-95%; (B)=0-30%) | –
4 | COc1ccsc1-c1cc(CNC23CC4CC(CC(C4)C2)C3)no1 [Example 44b, N-((5-(3-methoxythiophen-2-yl)isoxazol-3-yl)methyl)adamantan-1-amine] | A (key: (A)=31-95%; (B)=0-30%) | –
5 | Cc1cccc(-c2ncc(CNC34CC5CC(CC(C5)C3)C4)cn2)c1 [Example 63b, N-((2-mtolylpyrimidin-5-yl)methyl)adamantan-1-amine] | A (key: (A)=31-95%; (B)=0-30%) | –
6 | Cc1ccc(CNC23CC4CC(CC(C4)C2)C3)o1 [Example 67a] | – | A (key: (A)=31-95%; (B)=0-30%)
7 | COc1ccc(-c2nc(CNC34CC5CC(CC(C5)C3)C4)no2)cc1 [Example 126a, N-((5-(4-methoxyphenyl)-1,2,4-oxadiazol-3-yl)methyl)adamantan-1-amine] | – | A (key: (A)=31-95%; (B)=0-30%)
8 | Clc1ccc(CNC23CC4CC(CC(C4)C2)C3)cc1 [Example 1b, N-(4-Chlorobenzyl)adamantan-1-amine] | A (key: (A)=31-95%; (B)=0-30%) | –
9 | Cc1ncc(CNC23CC4CC(CC(C4)C2)C3)s1 [Example 16b, N-((2-methylthiazol-5-yl)methyl)adamantan-1-amine] | B (key: (A)=31-95%; (B)=0-30%) | –
10 | COc1ccccc1-c1noc(CNC23CC4CC(CC(C4)C2)C3)n1 [Example 30b, N-((3-(2-methoxyphenyl)-1,2,4-oxadiazol-5-yl)methyl)adamantan-1-amine] | A (key: (A)=31-95%; (B)=0-30%) | –
11 | c1nc(N2CCCCC2)ncc1CNC12CC3CC(CC(C3)C1)C2 [Example 58b, N-((2-(piperidin-1-yl)pyrimidin-5-yl)methyl)adamantan-1-amine] | A (key: (A)=31-95%; (B)=0-30%) | –
12 | CC(C)c1cc(CNC23CC4CC(CC(C4)C2)C3)no1 [Example 27b, N-((5-isopropylisoxazol-3-yl)methyl)adamantan-1-amine] | A (key: (A)=31-95%; (B)=0-30%) | –
13 | Cc1cccc2nc(CNC34CC5CC(CC(C5)C3)C4)[nH]c12 [Example 184a, Adamantan-1-yl-(7-methyl-1H-benzoimidazol-2-ylmethyl)-amine] | – | A (key: (A)=31-95%; (B)=0-30%)
14 | c1csc(-c2nnc(CNC34CC5CC(CC(C5)C3)C4)o2)c1 [Example 147a, Adamantan-1-yl-(5-thiophen-2-yl-[1,3,4]oxadiazol-2-ylmethyl)-amine] | – | A (key: (A)=31-95%; (B)=0-30%)
15 | Oc1cc(F)ccc1CNC12CC3CC(CC(C3)C1)C2 [Example 6b] | A (key: (A)=31-95%; (B)=0-30%) | –
16 | Clc1ccc2[nH]c(CNC34CC5CC(CC(C5)C3)C4)nc2c1 [Example 181a, Adamantan-1-yl-(5-chloro-1H-benzoimidazol-2-ylmethyl)-amine] | – | A (key: (A)=31-95%; (B)=0-30%)
17 | CCOc1ccc(-c2ccc(CNC34CC5CC(CC(C5)C3)C4)s2)cc1 [Example 49b, N-((5-(4-Ethoxyphenyl)thiophen-2-yl)methyl)adamantan-1-amine] | A (key: (A)=31-95%; (B)=0-30%) | –
18 | Oc1cc(Cl)ccc1CNC12CC3CC(CC(C3)C1)C2 [Example 9b, 2-((-Adamantan-1-ylamino)methyl)-5-chlorophenol] | A (key: (A)=31-95%; (B)=0-30%) | –
19 | Cc1ncc(CN(Cc2cnc(C)s2)C23CC4CC(CC(C4)C2)C3)s1 [Example 202a, N,N-bis((2-methylthiazol-5-yl)methyl)adamantan-1-amine] | – | B (key: (A)=31-95%; (B)=0-30%)
20 | Cc1ccc(CNC23CC4CC(CC(C4)C2)C3)c(O)c1 [Example 51a] | – | A (key: (A)=31-95%; (B)=0-30%)
21 | OC12CC3CC(C1)CC(NCc1ccc(Cl)s1)(C3)C2 [Example 189a, 3-[(5-Chloro-thiophen-2-ylmethyl)-amino]adamantan-1-ol] | – | B (key: (A)=31-95%; (B)=0-30%)
22 | c1csc(-c2nc(CNC34CC5CC(CC(C5)C3)C4)no2)c1 [Example 146a, N-((5-(thiophen-2-yl)-1,2,4-oxadiazol-3-yl)methyl)adamantan-1-amine] | – | A (key: (A)=31-95%; (B)=0-30%)
23 | Clc1ccc(CNC23CC4CC(CC(C4)C2)C3)nn1 [Example 70b, Adamantan-1-yl-(6-chloro-pyridazin-3-ylmethyl)-amine] | B (key: (A)=31-95%; (B)=0-30%) | –

Row | Compound | S31N OOcyte Inhibition at 100 uM (%) (pH 5.5) | S31N OOcyte Inhibition at 100 uM (%)
24 | C[Si](C)(C)c1ccc(CNC23CC4CC(CC(C4)C2)C3)s1 [Example 75b, Adamantan-1-yl-(5-trimethylsilanyl-thiophen-2-ylmethyl)-amine] | A (key: (A)=31-95%; (B)=0-30%) | –
25 | c1csc(-c2nc(CNC34CC5CC(CC(C5)C3)C4)cs2)c1 [Example 11b, N-((2-(thiophen-2-yl)thiazol-4-yl)methyl)adamantan-1-amine] | A (key: (A)=31-95%; (B)=0-30%) | –
26 | CSc1ccc(CNC23CC4CC(CC(C4)C2)C3)s1 [Example 90a] | – | A (key: (A)=31-95%; (B)=0-30%)
27 | c1c(CNC23CC4CC(CC(C4)C2)C3)noc1CN1CCOCC1 [Example 106a, N-((5-(morpholinomethyl)isoxazol-3-yl)methyl)adamantan-1-amine] | – | B (key: (A)=31-95%; (B)=0-30%)
28 | COc1ncc(CNC23CC4CC(CC(C4)C2)C3)c(OC)n1 [Example 64b, N-((2,4-dimethoxypyrimidin-5-yl)methyl)adamantan-1-amine] | B (key: (A)=31-95%; (B)=0-30%) | –
29 | Clc1ncc(CNC23CC4CC(CC(C4)C2)C3)s1 [Example 13b, N-((2-chlorothiazol-5-yl)methyl)adamantan-1-amine] | B (key: (A)=31-95%; (B)=0-30%) | –
30 | COc1ncc(CNC23CC4CC(CC(C4)C2)C3)cn1 [Example 55b, N-((2-methoxypyrimidin-5-yl)methyl)adamantan-1-amine] | A (key: (A)=31-95%; (B)=0-30%) | –
31 | c1ccc(-c2nc(CNC34CC5CC(CC(C5)C3)C4)no2)cc1 [Example 131a, N-((5-phenyl-1,2,4-oxadiazol-3-yl)methyl)adamantan-1-amine] | – | A (key: (A)=31-95%; (B)=0-30%)
32 | COc1ccc(-c2cc(CNC34CC5CC(CC(C5)C3)C4)no2)c(OC)c1 [Example 41b, N-((5-(2,4-dimethoxyphenyl)isoxazol-3-yl)methyl)adamantan-1-amine] | A (key: (A)=31-95%; (B)=0-30%) | –
33 | CSc1ccccc1-c1ccc(CNC23CC4CC(CC(C4)C2)C3)cc1 [Example 66b, Adamantan-1-yl-(2′-methylsulfanyl-biphenyl-4-ylmethyl)-amine] | A (key: (A)=31-95%; (B)=0-30%) | –
34 | c1ccc(-c2nc(CNC34CC5CC(CC(C5)C3)C4)c[nH]2)cc1 [Example 114a, N-((2-phenyl-1H-imidazol-4-yl)methyl)adamantan-1-amine] | – | B (key: (A)=31-95%; (B)=0-30%)
35 | Clc1ccc(-c2cc(CNC34CC5CC(CC(C5)C3)C4)no2)cc1 [Example 119a, N-((5-(4-chlorophenyl)isoxazol-3-yl)methyl)adamantan-1-amine] | – | A (key: (A)=31-95%; (B)=0-30%)
36 | Oc1cc(-c2ccsc2)ccc1CNC12CC3CC(CC(C3)C1)C2 [Example 8b] | A (key: (A)=31-95%; (B)=0-30%) | –
37 | COC(=O)c1ccc(-c2ccc(CNC34CC5CC(CC(O)(C5)C3)C4)cc2)cc1 [Example 190a, 4′-[(3-Hydroxy-adamantan-1-ylamino)-methyl]-biphenyl-4-carboxylic acid methyl ester] | – | A (key: (A)=31-95%; (B)=0-30%)
38 | c1ccc(-c2ncc(CNC34CC5CC(CC(C5)C3)C4)cn2)cc1 [Example 63a, N-((2-phenylpyrimidin-5-yl)methyl)adamantan-1-amine] | – | A (key: (A)=31-95%; (B)=0-30%)
39 | c1cnc2[nH]c(CNC34CC5CC(CC(C5)C3)C4)nc2c1 [Example 82b, N-((3H-imidazo[4,5-b]pyridin-2-yl)methyl)adamantan-1-amine] | A (key: (A)=31-95%; (B)=0-30%) | –
40 | c1ccc(-c2nc(CNC34CC5CC(CC(C5)C3)C4)cs2)cc1 [Example 132a, N-((2-phenylthiazol-4-yl)methyl)adamantan-1-amine] | – | B (key: (A)=31-95%; (B)=0-30%)
41 | Cc1csc(-c2ccc(CNC34CC5CC(CC(C5)C3)C4)cc2)c1 [Example 5b, N-(4-(4-Methylthiophen-2-yl)benzyl)adamantan-1-amine] | A (key: (A)=31-95%; (B)=0-30%) | –
42 | c1csc(-c2ccc(CNC34CC5CC(CC(C5)C3)C4)nc2)c1 [Example 55a, Adamantan-1-yl-(5-thiophen-2-yl-pyridin-2-ylmethyl)-amine] | – | A (key: (A)=31-95%; (B)=0-30%)
43 | c1cc(C2CC2)sc1CNC12CC3CC(CC(C3)C1)C2 [Example 108a, N-((5-cyclopropylthiophen-2-yl)methyl)adamantan-1-amine] | – | A (key: (A)=31-95%; (B)=0-30%)
44 | Oc1cc(-c2cccs2)ccc1CNC12CC3CC(CC(C3)C1)C2 [Example 49a] | – | B (key: (A)=31-95%; (B)=0-30%)
45 | CCOC(=O)CN(C)c1ncc(CNC23CC4CC(CC(C4)C2)C3)cn1 [Example 60b, N-((2-methyl(ethylcarboxymethyl)aminopyrimidin-5-yl)methyl)adamantan-1-amine] | A (key: (A)=31-95%; (B)=0-30%) | –
